Structures are written as SMILES. Values joined by “and” are separate entries in the source; they are usually repeats but may differ in a detail not shown here. Equal entries are not always repeated.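 A five-concentration, 48-hour dose response in 96-well plates underlies each endpoint, interpolated linearly between surrounding concentrations. GI50 is the concentration that inhibits growth by half. TGI is the concentration that stops growth completely.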 Bounds are passed on as bounds.

Common to all, as to assay: growth of human tumour cells (NCI), 48 h
The test system of test [1] is CAKI-1 renal.
Test [2] relates to HL-60(TB) leukemia.
Test [3] has as its system HOP-92 NSCLC.
The test system of test [4] is LOX IMVI melanoma.
For test [5], the system named is OVCAR-3 ovarian.
Test [6] relates to SK-MEL-28 melanoma.
Test [7] relates to SN12C renal.
Test [8] relates to SW-620 colon.
In test [9] the test system is UACC-257 melanoma.
Test [10] has as its system A498 renal.

With `N#C[C@H]1Nc2ccccc2[C@@H](O)C1O` (stereo partly specified), the TGI in [1], in test [2], in test [3], in [4], in test [5] and in [6] was above 100 µM each time. Moreover, the TGI in test [7], in [8] and in test [9] was above 100 µM in each case.
Take `COc1ccc(-c2cc(-c3nnc(SCC(=O)Nc4ccc(C(C)=O)cc4)o3)c3ccccc3n2)cc1`: the GI50 in test [10] is 24.8 µM; in test [2], above 100 µM; in test [3] it was 9.1 µM; in [4] it was 73.7 µM; in test [5], 62.6 µM; in [6], above 100 µM. Moreover, the GI50 in test [7], in test [8] and in [9] was above 100 µM each time. Moreover, the TGI is 72.7 µM in [10]; above 100 µM in test [2]; 37.5 µM in [3]; above 100 µM in test [4]; above 100 µM in test [5]; above 100 µM in test [6]. Besides, the TGI in test [7], in test [8] and in [9] was above 100 µM throughout.
For `COc1cc2c3c(n(CCCNCCNCCCN)c(=O)c2cc1OC)-c1cc2c(cc1C3=O)OCO2`, the GI50 in test [1] is 5.68 µM; in test [2], 6.11 µM; in test [3], 21 µM; in test [4], 1.08 µM; in test [5], 2.22 µM; in test [6], 6.6 µM. The GI50 is 1.66 µM in test [7], 2.03 µM in [8] and 9.51 µM in test [9]. Besides, the TGI in test [1] was determined as 24.1 µM; in test [2] it was 51.7 µM; in test [3], 72.2 µM; in test [4], 3.75 µM; in test [5], 7.63 µM; in test [6], 20.1 µM. The TGI in [7] worked out at 7.17 µM; in test [8] it was 10.7 µM; in test [9], 30.9 µM.
As to `CC(=O)OC12CC(C)C3(O)C4C=C(C)C(=O)[C@@]4(O)CC(CO)=C[C@H]3C1C2(C)C` (stereo partly specified), the GI50 in test [10] is 0.346 µM; in [2] it was 0.432 µM and 0.751 µM; in test [3], 45.4 µM; in test [4], above 1000 µM; in test [5] it was above 1000 µM; in test [6] it was above 1000 µM. Besides, the GI50 in test [9] is above 1000 µM. The TGI in test [2], in test [3], in test [4], in [5], in test [6] and in test [9] was above 1000 µM in each case.
`COC(=O)n1c(CBr)c(Br)c2ccccc21`: the TGI in [1] is 49.9 µM; in test [2], 59.8 µM; in test [3] it was 68 µM; in test [5], 50.9 µM; in test [6], above 100 µM; in test [8] it was above 100 µM. In test [9], this molecule registered a TGI above 100 µM.
For `Cc1ccc(F)cc1NC(=O)c1cc(Cl)ccc1Nc1ccccc1`, the GI50 in test [1] is above 100 µM; in test [2] it was above 100 µM; in test [3], 32 µM; in test [4], above 100 µM; in [5], above 100 µM; in [6] it was above 100 µM. The GI50 in [7], in test [8] and in test [9] was above 100 µM each time. Further, the TGI in [1], in [2], in test [3], in test [4], in [5] and in [6] was above 100 µM each time. Further, the TGI in test [7], in test [8] and in test [9] was above 100 µM in each case.
With `COc1ccc(C(O)/C(=C/n2ccnc2)c2ccccc2)cc1OC` (stereo unspecified), the TGI in [10], in test [2], in test [3], in [4], in test [5] and in test [6] was above 100 µM each time. Further, the TGI in [7], in test [8] and in [9] was above 100 µM throughout.
In the case of `COc1ccc(C(=O)CC(c2ccc(OC)c(OC)c2)c2c(O)c3ccccc3oc2=O)cc1OC` (stereo unspecified), the TGI in test [1], in [2], in test [3], in test [4], in test [5] and in test [6] was above 100 µM in each case. Besides, the TGI in test [7], in test [8] and in test [9] was above 100 µM in each case.

For the origin of these results see PubChem BioAssay (NCI).
